Source: patent publication US20030055003A1, “Use of copper chelators to inhibit the inactivation of protein C” (priority 2001, published 2003)
Several values for one entry are separate records, joined by “and”; a condition that tells them apart may be missing. Identical values can stand only once. Where a SMILES comes first, the peptide text is derived from it.

Assays:
[1] = biological target: T1, activated protein C (APC) (Homo sapiens, UniProt P04070); assay: APC activity assay (Accucolor assay, modified for aqueous environment); format: biochemical
T1 construct: purchased Sigma (St. Louis, Mo.) P2200
Procedure: Materials. The human albumin N-terminus analogue, d-DAHK, was synthesized by Bowman Research, Ltd (Newport, Wales, U.K.). The assay for APC anticoagulant activity was the Accucolor™ calorimetric assay (Sigma Diagnostics, St. Louis, Mo.). […] Copper content of APC was determined by graphite furnace atomic absorption (Galbraith Laboratories, Knoxville, Tenn.).
APC activity assay. The APC assay, originally designed for plasma samples (Francis et al., Am. J. Clin. Pathol. 87, 619-625 (1987)) was modified for use in a clean, aqueous environment. […] Experiments were performed in a 96-well plate. […] Protein C substrate (2 mg/L) was then added to each well and incubated for ten minutes at 37° C. Concentrated acetic acid was added to each well to stop the reaction and the results were read at 410 nm on a microplate fluorescence reader (Model FL600, Bio-Tek Instruments, Inc., Winooski, Vt.).

[2] = Model of the blood brain barrier; format: in vitro ADME
Source text: In P1, Xaa1 is most preferably Asp, Xaa2 is most preferably Ala, and Xaa3 is most preferably Lys (see above). Thus, the preferred sequences of P1 are Asp Ala His and Asp Ala His Lys [SEQ ID NO: 1]. Most preferably the sequence of P1 is Asp Ala His Lys [SEQ ID NO: 1]. Asp Ala His is the minimum sequence of the N-terminal metal-binding site of human serum albumin necessary for the high-affinity binding of Cu(lI) and Ni(II), and Lys has been reported to contribute to the binding of these metal ions to this site. […] Other preferred sequences for P, include Thr Leu His (the N-terminal sequence of human a-fetoprotein), Arg Thr His (the N-terminal sequence of human sperm protamin HP2) and HMS HMS His (a synthetic peptide reported to form extremely stable complexes with copper; see Mlynarz et al., Speciation 98: Abstracts, Apr. 21, 1998, http://www.jate.uszeged.hu/spec98/abstr/mlynar.html).

T1 sequence (P04070 212-461 limits assumed): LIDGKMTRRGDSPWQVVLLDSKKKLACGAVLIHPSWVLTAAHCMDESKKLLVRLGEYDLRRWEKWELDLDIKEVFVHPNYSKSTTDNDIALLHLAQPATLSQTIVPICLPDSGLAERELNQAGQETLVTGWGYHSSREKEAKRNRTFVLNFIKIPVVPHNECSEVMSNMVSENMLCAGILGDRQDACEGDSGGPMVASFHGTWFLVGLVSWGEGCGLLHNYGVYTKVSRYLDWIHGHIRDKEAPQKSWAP
T1 sequence (P04070 43-197 limits assumed): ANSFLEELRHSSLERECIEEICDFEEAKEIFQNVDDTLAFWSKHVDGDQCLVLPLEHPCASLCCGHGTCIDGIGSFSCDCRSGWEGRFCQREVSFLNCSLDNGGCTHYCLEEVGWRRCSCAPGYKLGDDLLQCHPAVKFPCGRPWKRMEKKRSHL

## [Cl][Cu][Cl] [CuCl2, reference compound]
[1]; 10 μM CuCl2, mean of two separate experiments
  overall mean decrease in APC activity compared to baseline: 26.0%±11.8
[1]; 10 μM CuCl2 with APC 2 mg/L, 30 min 37° C., single experiment, mean±SD, n=3
  decrease in APC activity compared to baseline: 27.9%±15.5 and 24.1%±9.7

## C[C@H](NC(=O)[C@@H](N)CC(=O)O)C(=O)N[C@@H](Cc1c[nH]cn1)C(=O)N[C@@H](CCCCN)C(=O)O [Asp Ala His Lys] (H-DAHK-OH; N-terminus and C-terminus assumed)
[2]
  passage through a model of the blood brain barrier: pass through a model of the blood brain barrier

## D-Asp D-Ala D-His D-Lys [d-DAHK]
[1]; 40 μM chelator with APC 2 mg/L, no added copper, 30 min 37° C., mean±SD
  increase over baseline APC activity, chelator alone: 18.2%±13.0
[1]; d-DAHK:CuCl2 ratios below 2:1 (1:4, 1:2, 1:1)
  protection of copper-induced inhibition of APC, lower d-DAHK:CuCl2 ratios: no significant protection
[1]; ratio 2:1 d-DAHK:CuCl2, 30 min 37° C.
  increase of APC activity over baseline, d-DAHK:CuCl2 2:1: 12.9%±1.1
[1]; ratio 4:1 d-DAHK:CuCl2, 30 min 37° C.
  increase of APC activity over baseline, d-DAHK:CuCl2 4:1: 14.8%±12.7
